Test results from publication PMC4698665, “Functional Analysis of Esterase TCE2 Gene from Tetranychus cinnabarinus (Boisduval) involved in Acaricide Resistance” (Scientific Reports, 2016).

T1: recombinant TCE2 (Tetranychus cinnabarinus, UniProt B3TFG7)
T1 construct: pCold II (vector His tag), E. coli BL21(DE3), Ni-NTA purified; about 63 kDa
T1 sequence (B3TFG7 24-560): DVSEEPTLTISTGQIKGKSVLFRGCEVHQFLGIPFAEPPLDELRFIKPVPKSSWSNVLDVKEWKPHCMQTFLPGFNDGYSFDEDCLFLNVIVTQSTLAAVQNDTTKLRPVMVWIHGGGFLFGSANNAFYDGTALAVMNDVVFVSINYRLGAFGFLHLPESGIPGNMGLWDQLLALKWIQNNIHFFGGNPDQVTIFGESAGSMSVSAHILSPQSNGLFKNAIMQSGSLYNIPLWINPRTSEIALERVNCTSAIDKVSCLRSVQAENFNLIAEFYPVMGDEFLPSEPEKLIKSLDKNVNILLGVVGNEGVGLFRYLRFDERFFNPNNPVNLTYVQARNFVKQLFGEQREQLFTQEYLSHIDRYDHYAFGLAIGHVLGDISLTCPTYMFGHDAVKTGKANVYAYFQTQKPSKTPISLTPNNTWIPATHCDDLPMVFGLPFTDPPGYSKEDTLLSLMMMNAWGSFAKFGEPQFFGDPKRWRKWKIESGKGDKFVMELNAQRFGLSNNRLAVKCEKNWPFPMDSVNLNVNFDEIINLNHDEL

B1: recombinant TCE2 (Tetranychus cinnabarinus) (protein)
chain: T1 sequence (B3TFG7 24-560)
notes: pCold II (vector His tag), E. coli BL21(DE3), Ni-NTA purified; about 63 kDa

Key:
recombinant TCE2 [1] = target: T1, recombinant TCE2; assay: Dixon plot, colorimetric esterase assay (Fast blue B); assay type: biochemical
recombinant TCE2 [2] = target: T1, recombinant TCE2; assay: colorimetric esterase inhibition assay, microplate (Fast blue B, […] nm); assay type: biochemical
purified protein = substrate: CC(=O)Oc1cccc2ccccc12; assay: purified protein; assay type: biochemical, Tetranychus cinnabarinus; conditions: 0.04 M PBS pH 7.4, 30 °C, 10 min

| Molecule | Ki (recombinant TCE2 [1]) [µM] | IC50 (recombinant TCE2 [2]) [µM] | Km (purified protein) [µM] | Vmax (purified protein) [µmol/min/mg] |
| --- | --- | --- | --- | --- |
| COCCOC(=O)C(C#N)(C(=O)c1ccccc1C(F)(F)F)c1ccc(C(C)(C)C)cc1 (stereo not drawn) [cyflumetofen] | 182 ± 17.7 | 129 ± 12.7 | – | – |
| CC1(C)C(C(=O)OC(C#N)c2cccc(Oc3ccccc3)c2)C1(C)C (stereo not drawn) [fenpropathrin] | 356 ± 35.4 | 235 ± 15.3 | – | – |
| B1 | – | – | 30.5 ± 5.9 | 0.448 |
